Data published in patent publication US10526371B2, “Hydrogel-forming peptides” (Universiteit Gent, priority 2015, dated 2020).
Values joined by “and” are separate entries in the source; they are usually repeats but may differ in a detail not shown here. Identical values can stand only once. Square brackets hold non-standard residues; d marks the D form. Peptide text beside a SMILES is read from it. β3hF = N[C@H](CC(=O)O)Cc1ccccc1

Columns and labels:
elastase [1] = assay: Enzymatic degradation study of peptides in non-gelating conditions; type: in vitro ADME; conditions: peptide 350 μM, elastase 60 μM, 37° C.
Description: The following biodegradation experiments were performed in order to assess biostability of peptides of the invention toward elastase, a prominent enzyme present in the subcutaneous compartment.
The following buffer was used to assay the proteolytic stability of the peptides towards elastase: 10 mM PBS at pH 7.2. First, a stock solution of elastase (60 μM in 10 mM PBS) was prepared. Peptides SEQ ID NO 1, 2 and 3 and reference α-peptide SEQ ID NO 23 were subjected to the degradation study and prepared as a stock solution of 350 μM in mQ water (with a resistivity of […]). Enzymatic degradation was carried out by incubation of peptide (900 μL, 350 μM) with the enzyme (150 μL, 60 μM) at 37° C. for 7 days. To preclude any pH-dependent effects on the enzyme's activity, the pH value was kept at pH 6.9±0.5 in all degradation experiments.
The enzyme concentration was selected such that the reference α-peptide SEQ ID NO 23 was completely degraded in less than 1 hour. In case of the α-peptide SEQ ID NO 23, aliquots (70 μL) were periodically taken at 0 min, 5 min, 10 min, 15 min, 20 min and 30 min, while for the mixed α/β-peptides aliquots (70 μL) were taken at 0 min, 20 min, 30 min, 1 h, 2 h, 5 h, 1 day, 2 days, 3 days, 4 days, 5 days and 6 days. 5 μL of 25% AcOH in water (v/v) were added and the degradation was monitored by HPLC analysis. After just 30 min of exposure to elastase, the reference α-peptide SEQ ID NO 23 was completely degraded. The enzymatic degradation of mixed α/β-peptides SEQ ID NO 1, SEQ ID NO 2 and SEQ ID NO 3 was remarkably slower and lasted several days. Mixed α/β-peptides SEQ ID NO 1 and SEQ ID NO 2 were completely consumed after 6 days whilst mixed α/β-peptide SEQ ID NO 1, SEQ ID NO 3 was degraded after 3 days.

elastase [2] = assay: Proteolytic stability of hydrogels (elastase solution on top of hydrogel); type: in vitro ADME; conditions: for time at which hydrogel changed into an opaque structure / gel degradation time (hydrogel unstable/fluid-like): elastase 60 μM in 10 mM PBS on top; for gel degradation time (hydrogel unstable/fluid-like): room temperature; for macroscopic aggregation / physical degradation: over 42 days
Description: (B) The proteolytic stability of the hydrogels was analyzed by placing an elastase solution (60 μM in 10 mM PBS) on top of the hydrogel. In all the stability experiments a total volume of 4 mL (gel+PBS solution with and without enzyme) was obtained. The addition of the enzyme solution on top of the hydrogel was set as the starting point of the gel-degradation experiments; B. At specific time-intervals (0 h, 24 h, 2 days, 3 days, 4 days, 5 days, 6 days, 7 days, 2 weeks, 3 weeks, etc.) the liquid portion on top of the hydrogel was removed using a pipette and the hydrogel's volume was estimated using following formula: VTotal−VLiquid portion=VHydrogel (1)
wherein VTotal is the total volume and remains at 4 mL and VLiquid portion is the volume measured of the liquid portion after each sampling interval. At each sampling interval the pH was also measured; C. A picture of the inverted glass tube, only containing the self-sustaining non-fluid-like hydrogel, was taken in order to assess the physical deformation of the hydrogel and volume-loss; D. The PBS, mQ or enzyme solution is gently replaced on top of the hydrogel using a pipette, allowing repetition of steps A-D. Between sampling-intervals the glass tubes were kept undisturbed at room temperature. The gel degradation time was defined as the period required for complete disintegration of the hydrogels into liquid under observation of the naked eye.
(C) In a next step, the stability and degradation profiles of the mixed α/β-hydrogels were investigated using this methodology. During the first hours after addition of the elastase to peptide SEQ ID NO 1 hydrogel, no apparent physical deformation was observed. The collected liquid portion (on top of the hydrogel) measured 3 mL (during the first 10 hours). […] In comparison to the α-peptide 1 hydrogel the degradation time of peptide SEQ ID NO 1 hydrogel was extended from 3.5 days to 5.5 days. However, the physical alteration of this hydrogel into an opaque structure was already observed after one day.

[3] = Erosion / general stability of hydrogel without enzyme (PBS on top); type: physicochemical
Description: (A). The peptide hydrogel (1 mL) was prepared in a 10 mL glass tube using the appropriate gelation conditions (see peptide self-assembly in example 2). After leaving the hydrogel to rest overnight the degradation evaluation was started. First, general stability (without the incubation of an enzyme) was evaluated for α-peptide SEQ ID NO 23: 3 mL of mQ water was gently placed on top of the hydrogel and erosion experiments were performed by placing 3 mL PBS solution (10 mM) on top of the hydrogel to assess the hydrogels macroscopic decay in time. […] After 24 hours there was a small loss in volume (0.1 mL) of the formed hydrogel and the aggregation remained visible at the hydrogel surface. The PBS fraction was recollected and measured as 3.1 mL, in agreement with the 0.1 mL volume loss of the hydrogel. After 4 days the hydrogel was completely disintegrated into opaque aggregated pieces sticking to the bottom of the glass tube. The collected solution was measured to be 3.8 mL.

[4] = Peptide self-assembly / gelation conditions; type: physicochemical; conditions: TFA salt
Description: Peptide self-assembly was analyzed in i) a PBS solution (10 mM), ii) a PBS/mQ mixture (1:1 v:v, mQ water with a resistivity of […]) or iii) a NaCl aqueous solution (150 mM). The TFA salt of reference peptide SEQ NO. 23 (1 mg) was dissolved in 50 μl mQ water, followed by the addition of 50 μl PBS solution. This mixture was left to rest overnight, resulting in a 1% w/v hydrogel. The TFA salt of mixed α/β-peptides SEQ ID NO 1 and SEQ ID NO 2 (2 mg) was dissolved in mQ (100 μL) and PBS/mQ mixture (100 μL), respectively. […] The TFA salt of mixed α/β-peptide SEQ ID NO 3 (3 mg) was dissolved in PBS (100 μL) to probe gelation. All self-assembled gels were analyzed by circular dichroism (CD) and Fourier transform infrared (FT-IR) spectroscopy, as well as cryogenic transmission electron microscopy (Cryo-TEM).
(SEQ ID NO:22 (=10-mer)), 100 μl mQ water was added to 2 mg of TFA-salt of pure peptide, then vortexed and sonicated. As a result, a transparent self-supporting gel was formed immediately. A gelation condition of 2 w/v % in mQ water was found.
for H-Fβ^2hFEFQFK-NH2 (SEQ ID NO:19), 100 μl of PBS was added to 2 mg of TFA-salt of pure peptide, then vortexed and sonicated. After overnight resting, a self-supporting gel was formed. A gelation condition of 2 w/v % in PBS was determined.

[5] = 3 mL PBS on top, after 24 hours

time to complete degradation by elastase (elastase [1]; HPLC) | collected liquid portion on top of the hydrogel (elastase [2]; hydrogel with elastase, during the first 10 hours) [mL] | time at which hydrogel changed into an opaque structure (elastase [2]) | gel degradation time (hydrogel unstable/fluid-like) (elastase [2]) [days] | hydrogel volume relative to original volume (elastase [2]; hydrogel with elastase, after 35 days) | physical stability: time without observable volume loss (elastase [2]; hydrogel with elastase) | hydrogel volume ([3]; 1 mL hydrogel, 3 mL PBS 10 mM on top, after 2 hours) [mL] | PBS fraction recollected [3, 5] [mL] | loss in volume of hydrogel [3, 5] [mL] | collected solution ([3]; 3 mL PBS on top, after 4 days) [mL] | time to complete disintegration of hydrogel ([3]; 3 mL PBS on top, no enzyme) [days] | time to complete degradation by elastase (elastase [1]; enzyme concentration selected for this) | hydrogel concentration obtained ([4]; 50 μl mQ water + 50 μl PBS, rest overnight) [% w/v] | time of gelation (self-supporting gel formed) ([4]; at its own gelation condition) | Compound | macroscopic aggregation / physical degradation (elastase [2]; hydrogel with elastase)
6 days and 3 days | 3 | one | 5.5 |  |  |  |  |  |  |  |  |  |  | NCCCC[C@H](NC(=O)[C@H](Cc1ccccc1)NC(=O)C[C@H](Cc1ccccc1)NC(=O)[C@H](CCC(N)=O)NC(=O)[C@H](Cc1ccccc1)NC(=O)C[C@H](Cc1ccccc1)NC(=O)[C@H](CCC(=O)O)NC(=O)[C@@H](N)Cc1ccccc1)C(=O)O [SEQ ID NO 1, H-Phe-Glu-β^3hPhe-Phe-Gln-β^3hPhe-Phe-Lys-OH] (H-FE[β3hF]FQ[β3hF]FK-OH) | 
6 days |  |  |  | approximately half |  |  |  |  |  |  |  |  |  | NCCCC[C@H](NC(=O)[C@H](Cc1ccccc1)NC(=O)C[C@H](Cc1ccccc1)NC(=O)[C@H](CCC(N)=O)NC(=O)[C@H](Cc1ccccc1)NC(=O)C[C@H](Cc1ccccc1)NC(=O)[C@H](CCC(=O)O)NC(=O)[C@@H](N)Cc1ccccc1)C(N)=O [SEQ ID NO 2, H-Phe-Glu-β^3hPhe-Phe-Gln-β^3hPhe-Phe-Lys-NH2] (H-FE[β3hF]FQ[β3hF]FK-NH2) | no macroscopic aggregation was observed
3 days |  |  |  |  | over 42 days |  |  |  |  |  |  |  |  | NCCCC[C@H](NC(=O)[C@H](Cc1ccc(O)cc1)NC(=O)C[C@H](Cc1ccccc1)NC(=O)[C@H](CCC(N)=O)NC(=O)[C@H](Cc1ccc(O)cc1)NC(=O)C[C@H](Cc1ccccc1)NC(=O)[C@H](CCC(=O)O)NC(=O)[C@@H](N)Cc1ccccc1)C(N)=O [SEQ ID NO 3, H-Phe-Glu-β^3hPhe-Tyr-Gln-β^3hPhe-Tyr-Lys-NH2] (H-FE[β3hF]YQ[β3hF]YK-NH2) | no significant physical degradation nor aggregation
0.0208 days |  | 2 days | 3.5 |  |  | 1 | 3.1 | 0.1 | 3.8 | 4 | less than 1 hour | 1 | overnight | H-FEFQFK-OH [SEQ ID NO 23, H-FEFQFK-OH, reference compound] | 
